According to the NIST ThermoML archive (doi:10.1016/j.jct.2006.10.012):
Numbers after ± are expanded uncertainties.

How the values were obtained:
[1] = Molar enthalpy of transition or fusion; details: Crystal; Adiabatic calorimetry

Cc1ccc2nc(C)ccc2c1 [2,6-dimethylquinoline]
Liquid
Details	vapor or sublimation pressure [kPa]
336.99 K, Inclined piston gauge	0.0375 ± 0.0008
339.98 K, Inclined piston gauge	0.0461 ± 0.0009
349.98 K, Inclined piston gauge	0.0877 ± 0.0009
359.98 K, Inclined piston gauge	0.1589 ± 0.0009
369.98 K, Inclined piston gauge	0.2786 ± 0.001
379.97 K, Inclined piston gauge	0.4711 ± 0.0012
389.97 K, Inclined piston gauge	0.7716 ± 0.0016
399.97 K, Inclined piston gauge	1.227 ± 0.002
404.97 K, Inclined piston gauge	1.532 ± 0.0024
409.97 K, Inclined piston gauge	1.899 ± 0.0028
411.21 K, Twin ebulliometer	2 ± 0.0082
414.96 K, Inclined piston gauge	2.34 ± 0.0031
428.45 K, Twin ebulliometer	3.987 ± 0.0083
436.24 K, Twin ebulliometer	5.329 ± 0.009
447.73 K, Twin ebulliometer	7.992 ± 0.0096
456.33 K, Twin ebulliometer	10.65 ± 0.011
463.33 K, Twin ebulliometer	13.33 ± 0.012
470.57 K, Twin ebulliometer	16.66 ± 0.013
476.57 K, Twin ebulliometer	19.93 ± 0.015
484.49 K, Twin ebulliometer	25.02 ± 0.017
492.47 K, Twin ebulliometer	31.19 ± 0.02
500.45 K, Twin ebulliometer	38.56 ± 0.023
508.5 K, Twin ebulliometer	47.36 ± 0.027
516.61 K, Twin ebulliometer	57.81 ± 0.031
524.76 K, Twin ebulliometer	70.1 ± 0.036
532.96 K, Twin ebulliometer	84.5 ± 0.042
541.22 K, Twin ebulliometer	101.3 ± 0.05
549.51 K, Twin ebulliometer	120.76 ± 0.06
557.86 K, Twin ebulliometer	143.19 ± 0.06
566.25 K, Twin ebulliometer	168.98 ± 0.07
574.7 K, Twin ebulliometer	198.44 ± 0.08
583.18 K, Twin ebulliometer	231.96 ± 0.1
591.71 K, Twin ebulliometer	269.97 ± 0.1

Details	Critical temperature [K]	Triple point temperature [K]	mass density [kg/m3]
348.13 K, Liquid	–	–	995.1 ± 2
373.12 K, Liquid	–	–	975.8 ± 2
398.12 K, Liquid	–	–	956.9 ± 2
423.12 K, Liquid	–	–	938.7 ± 5
448.11 K, Liquid	–	–	914.4 ± 1.9
473.11 K, Liquid	–	–	894 ± 1.9
498.11 K, Liquid	–	–	872.2 ± 1.9
523.11 K, Liquid	–	–	849.2 ± 2
Crystal, Adiabatic calorimetry	–	330.84 ± 0.05	–
Liquid, DTA	786 ± 2	–	–

Details	Molar enthalpy of transition or fusion [kJ/mol]
[1]	20.418 ± 0.017
